Measurements from US11827628B2, “Compositions and methods for inhibition of the JAK pathway” (Rigel Pharmaceuticals, Inc., priority 2005, dated 2023).
Counter-ions that a name gives are not always drawn. Like-named read-outs stand apart in the source and are kept apart here.

Test system: IL-4 stimulated expression of CD23 in human Ramos B cells (JAK-1 and JAK-3)
Experiment: Assay for Ramos B-Cell Line Stimulated with IL-4 (CD23 upregulation, FACS)
Assay type: cell-based
Settings: read-out: IC50, Example 41
How it was run: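 Read-out: anti-CD23-PE flow cytometry on Ramos B cells, giving IC50. Cells (5×10^4 per point, RPMI + 5% serum) get compound or DMSO for 1 h at 37 °C, then IL-4 50 units/mL final for 20-24 h.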

[1] = Ramos B cells stimulated with IL-4, CD23 expression by FACS
[2] = Ramos B-cell line stimulated with IL-4, CD23 expression by FACS
[3] = Homo sapiens, Ramos, Ramos B cells stimulated with IL-4, CD23 expression by FACS
[4] = Homo sapiens, Ramos, Ramos B-cell line stimulated with IL-4, CD23 expression by FACS

For `CN1C(=O)C(C)(C)Oc2ccc(Nc3nc(Nc4ccc(S(N)(=O)=O)cc4)ncc3F)nc21` [VII-43, N2-(4-Aminosulfonylphenyl)-N4-[2,2,4-trimethyl-3-oxo-5-pyrid[1,4]oxazin-5-yl]-5-fluoro-2,4-pyrimidinediamine], which IC50 [1] is on record?
Its IC50 is 0.603 µM.

Which IC50 [2] does the source give for `CC(C)(Oc1ccc(Nc2nc(Nc3ccc(S(N)(=O)=O)cc3)ncc2F)cc1)C(N)=O` [Compound I-125, N4-[4-(1-Aminocarbonyl-1-methyl)ethoxy]phenyl-N2-(4-aminosulfonyl)phenyl-5-fluoro-2,4-pyrimidinediamine] here?
Its IC50 is 0.538 µM.

How did the IC50 [3] turn out when `NS(=O)(=O)c1cccc(Nc2ncc(F)c(Nc3cccc(S(N)(=O)=O)c3)n2)c1` [VI-113, N2,N4-Bis-(3-aminosulfonylphenyl)-5-fluoro-2,4-pyrimidinediamine] was run?
Its IC50 is 0.7 µM.

`CNS(=O)(=O)c1ccc(Nc2ncc(F)c(Nc3ccc(Cl)c(C(F)(F)F)c3)n2)cc1OC` [IX-52, N4-(4-Chloro-3-trifluoromethylphenyl)-5-fluoro-N2-[4-(N-methyl)aminosulfonyl-3-methoxyphenyl]-2,4-pyrimidinediamine] was tested. Which IC50 [3] did it give?
The IC50 was 0.117 µM.

Which IC50 [3] does the source give for `Cc1ccc(Nc2ncc(F)c(Nc3ccc4nc(O)cc(C)c4c3)n2)cc1S(N)(=O)=O` [VII-73, N2-(3-Aminosulfonyl-4-methylphenyl)-5-fluoro-N4-(2-hydroxy-4-methylquinolin-6-yl)-2,4-pyrimidinediamine] here?
The IC50 was 6.09 µM.

For `CNS(=O)(=O)c1cc(Nc2ncc(F)c(NCCc3ccc(-n4ccnc4)cc3)n2)ccc1C` [III-89, 5-Fluoro-N2-[3-(N-methylaminosulfony)-4-methylphenyl]-N4-[4-(1-imidazolyl)phenethyl]-2,4-pyrimidinediamine], which IC50 [1] is on record?
The IC50 was 0.115 µM.

`Cc1ccc(Nc2ncc(F)c(NC3CN(C(=O)CC#N)CCC3C)n2)cc1S(N)(=O)=O` (racemic) [VII-5, Racemic N2-(3-aminosulfonyl-4-methylphenyl)-N4-(1-cyanomethylenecarbonyl-4-methylpiperidin-3-yl)-5-fluoro-2,4-pyrimidinediamine] was tested. Which IC50 [1] did it give?
Its IC50 is 4.13 µM.

Which IC50 [3] does the source give for `CCC(=O)NS(=O)(=O)c1cccc(Nc2ncc(F)c(Nc3ccc(CCOC(=O)N(C)C)cc3)n2)c1` [VI-64, N4-{4-[2-(Dimethylaminocarbonyloxy)ethyl]phenyl}-5-fluoro-N2-(3-propionylaminosulfonylphenyl)-2,4-pyrimidinediamine] here?
The IC50 was 5.8 µM.

For `Cc1cc(COc2ccc(Nc3nc(Nc4ccc5c(c4)S(=O)(=O)NC5=O)ncc3F)cc2)no1` [VIII-1, 5-Fluoro-N4-[4-(5-methylisoxazol-3-yl)methyleneoxyphenyl]-N2-(sacchrin-6-yl)-2,4-pyrimidinediamine], which IC50 [1] is on record?
Its IC50 is 1.59 µM.

With `CCC(=O)NS(=O)(=O)c1cc(Nc2ncc(F)c(Nc3ccc(OCC(=O)OC)cc3)n2)ccc1C` [Compound I-213, 5-Fluoro-N4-(4-methoxycarbonylmethoxyphenyl)-N2-(4-methyl-3-propionylaminosulfonylphenyl)-2,4-pyrimidinediamine] as the compound, how does the IC50 [4] read?
Its IC50 is 11.5 µM.

`Cc1cc(COc2ccc(Nc3nc(Nc4cccc(S(=O)(=O)NCc5oc(=O)oc5C(C)(C)C)c4)ncc3F)cc2)no1` [Compound I-250, N2-{3-[(N-5-t-Butyl-1,3-dioxolene-2-one-4-yl)methylene]aminosulfonylphenyl}-5-fluoro-N4-[4-(5-methylisoxazol-3-yl)methyleneoxyphenyl]-2,4-pyrimidinediamine] was tested. Which IC50 [2] did it give?
Its IC50 is 0.673 µM.

For `CCC(=O)NS(=O)(=O)c1cccc(Nc2ncc(F)c(Nc3ccc(CCOC(=O)N(C)C)cc3)n2)c1` [VI-66, N4-{4-[2-(Dimethylaminocarbonyloxy)ethyl]phenyl}-5-fluoro-N2-(3-propionylaminosulfonylphenyl)-2,4-pyrimidinediamine sodium salt], which IC50 (Ramos B cells stimulated with IL-4, CD23 expression by FACS, sodium salt) is on record?
The IC50 was 6.09 µM.

Which IC50 [3] does the source give for `CCNC(=O)NCc1ccc(Nc2nc(Nc3ccc(S(N)(=O)=O)cc3)ncc2F)cc1` [III-119, N2-(4-Aminosulfonylphenyl)-N4-(4-ethylaminocarbonylaminomethylphenyl]-5-fluoro-2,4-pyrimidinediamine] here?
The IC50 was 1.3 µM.

For `COc1cc(Nc2nc(Nc3cccc(S(N)(=O)=O)c3)ncc2F)ccc1NC(=O)CC#N` [Compound I-84, N2-(3-Aminosulfonylphenyl)-5-fluoroN4-[3-methoxy-4-(N-cyanoacetyl)aminophneyl]-2,4-pyrimidinediamine], which IC50 [2] is on record?
Its IC50 is 1.4 µM.

For `Cc1cc(CCC#N)ccc1Nc1nc(Nc2ccc(C)c(S(N)(=O)=O)c2)ncc1F` [III-23, N2-(3-Aminosulfonyl-4-methylphenyl)-N4-(4-cyanoethylene-2-methylphenyl)-5-fluoro-2,4-pyrimidinediamine], which IC50 [2] is on record?
Its IC50 is 0.397 µM.

Which IC50 [2] does the source give for `CN1CCN(S(=O)(=O)c2cccc(Nc3ncc(F)c(Nc4ccc(OCC(N)=O)cc4)n3)c2)CC1` [Compound I-112, N4-(4-Aminocarbonylmethoxy)phenyl-5-fluoro-N2-[3-(4-methylpiperazin-1-yl)sulfonyl]phenyl-2,4-pyrimidinediamine] here?
Its IC50 is 2.36 µM.

For `Cc1ccc(Nc2ncc(F)c(Nc3ccc4c(C(N)=O)c[nH]c4c3)n2)cc1S(N)(=O)=O` [IX-9, N4-[3-(Aminocarbonyl)-1H-indol-6-yl]-N2-(3-aminosulfonyl-4-methylphenyl)-5-fluoro-2,4-pyrimidinediamine], which IC50 [3] is on record?
Its IC50 is 8.88 µM.

Which IC50 [4] does the source give for `CNC(=O)COc1ccc(Nc2nc(Nc3ccc(S(N)(=O)=O)cc3)ncc2F)cc1Cl` [Compound I-146, N2-(4-Aminosulfonylphenyl)-N4-(3-chloro-4-methylaminocarbonylmethoxyphenyl)-5-fluoro-2,4-pyrimidinediamine] here?
Its IC50 is 0.364 µM.

`Cc1cc(Nc2nc(Nc3cccc(S(N)(=O)=O)c3)ncc2F)ccc1OCc1ccccn1` [Compound I-167, N2-(3-Aminosulfonylphenyl)-5-fluoro-N4-[(4-((pyridin-2-yl)methoxy)-3-methylphenyl)]-2,4-pyrimidinediamine] was tested. Which IC50 [4] did it give?
Its IC50 is 0.142 µM.

Which IC50 [2] does the source give for `CNS(=O)(=O)c1ccc(Nc2ncc(F)c(Nc3ccc(OC(F)(F)F)c(Cl)c3)n2)cc1OC` [Compound I-269, 5-fluoro-N2-(4-N-methylaminosulfonyl)-3-methoxyphenyl-N4-(4-trifluoromethoxy-3-chlorophenyl)-2,4-pyrimidinediamine] here?
The IC50 was 0.917 µM.

For `CCC(=O)NS(=O)(=O)c1cccc(Nc2ncc(F)c(Nc3ccc(OCc4cc(C)on4)cc3)n2)c1` [Compound I-236], which IC50 [2] is on record?
Its IC50 is 1.98 µM.

For `C#CCn1ccc2ccc(Nc3nc(Nc4cccc(S(N)(=O)=O)c4)ncc3F)cc21` [IX-4, N2-(3-Aminosulfonylphenyl)-5-fluoro-N4-[1-(propyn-3-yl)indol-6-yl]-2,4-pyrimidinediamine], which IC50 [3] is on record?
The IC50 was 0.12 µM.

How did the IC50 [3] turn out when `Cc1cc(O)nc2ccc(Nc3nc(Nc4cccc(S(N)(=O)=O)c4)ncc3F)cc12` [VII-74, N2-(3-Aminosulfonylphenyl)-5-fluoro-N4-(2-hydroxy-4-methylquinolin-6-yl)-2,4-pyrimidinediamine] was run?
The IC50 was 4.56 µM.

Which IC50 [1] does the source give for `CCCN(Cc1ccc(Nc2nc(Nc3ccc(S(N)(=O)=O)cc3)ncc2F)cc1)C(N)=O` [III-125, N2-(4-aminosulfonyl)phenyl-N4-[4-(N-carbamoyl-N-propyl)aminomethyl]phenyl-5-fluoro-2,4-pyrimidinediamine] here?
The IC50 was 0.836 µM.

For `CC1(C)Oc2cc(Nc3nc(Nc4ccc(S(N)(=O)=O)cc4)ncc3F)cnc2NC1=O` [VII-52, N2-(4-Aminosulfonylphenyl)-N4-[2,2-dimethyl-3-oxo-4H-5-pyrid[1,4]oxazin-7-yl]-5-fluoro-2,4-pyrimidinediamine], which IC50 [1] is on record?
Its IC50 is 47.1 µM.
